Laboratory results published in patent publication US20040214760A1, “Inhibition pf protein-phosphatases for the treatment of heart failure” (priority 2001, published 2004).

Experiments:
PP1 = conditions: heat and acid stable proteins of skeletal muscle extract (Cohen et al., 1998); cited from earlier work
[1] = target: 32P-labelled phosphorylase a

| Substance | inhibition of phosphatase (PP1) activity, dependence on phosphorylation state (PP1) | 32P released from 32P-labelled phosphorylase a [1] [%] |
| --- | --- | --- |
| inhibitor-1 | inhibits phosphatase activity only when it has been phosphorylated by cAMP-dependent protein kinase | – |
| purified catalytic subunit of PP1 from rabbit skeletal muscle (enzyme) | – | 30 |
